For 10 compounds, IC50, CC50 and EC50 results are on record in patent US11697650B2, “Compounds having tetrahydroindolizine-1-carboxamide as BCL-2 inhibitors” (Eil Therapeutics, Inc., priority 2021, dated 2023).

One may read the IC50 as the concentration at which inhibition is half-maximal. Usually CC50 stands for the concentration giving 50% cytotoxicity.

Each structure is given as a SMILES string.

One series has as its target BCL-XL (Homo sapiens (Human), UniProt Q07817). Briefly: BCL-XL TR-FRET Assay (primary PPI inhibition). The class given is binding. The settings on record: 60 min incubation; read-out: BCLxL (IC50 code, BCL-XL TR-FRET). The procedure:
BCL-XL TR-FRET Assay (BPS Bioscience, #50223)
The following assay concentrations and times were used: 10.5 ng BCL-XL, 5 μl of 1:100 anti-His Tb-labeled donor, 5 μl of 1:100 Dye-labeled acceptor, 5 μl of 1:80 BCL-XL Peptide Ligand, and 2 μl of test compound, with 60 min incubation time. The results of the assay were read using a Clariostar (BMG Labtech) plate reader with the following parameters: TR FRET, 340ex/620 and 665em; 60 μsec Delay; and 500 μsec integration.
In general terms: In TR-FRET formats the signal depends on donor and acceptor labels being close together.

Another series concerns RS4-11 cells. As to the kind of experiment: Cell viability assay (CellTiter-Glo), RS4-11. The conditions noted are these: Homo sapiens, 72 h, 3 days, read-out: RS4-11 (CC50 code). Type of series: cell-based. Here is the method:
(§1) Culture medium for HEK293—DMEM (PanEco, Cat #C420) was used. RPMI-1640 (PanEco, Cat #C363) was used for the rest of the cell lines.
(§2) Compounds were prepared as 200× stocks with serial dilution in 100% DMSO with a final concentration of 1×.
(§3) […] were dispersed in 40 μL aliquots in 384-well plates at a concentration of 2000 cells per well for HEK293 and at a concentration of 4000 cells per well for the rest of the cell lines using a robotic station Biomek (Beckman). Before adding compounds, the cells were incubated at 37° C. (HEK293 were incubated for a day before adding compounds).
(§4) A dilution plate was prepared by pouring 78 μL of the appropriate culture medium using a robotic station Biomek (Beckman). Sequentially, using a robotic station, 2 μL of substances were taken and added to 78 μL of culture medium (dilution of compounds 40×). 10 μL aliquots were taken and added to the plates of the cells (dilution of compounds 5×). The plates were incubated for 3 days at a temperature 37° C. After 3 days, 10 μL of CellTiter-Glo (Promega) was added to the cells and the luminescence was measured.

A further series concerns MOLT-4 cells. As to the kind of experiment: Cell viability assay (CellTiter-Glo), MOLT-4. Type of series: cell-based. The settings on record: Homo sapiens, 72 h, 3 days, read-out: MOLT-4 (CC50 code). Here is the method:
as §1, §2, §3, §4

Series [1] in a line: Cell viability assay (CellTiter-Glo), HEK293. Type of series: cell-based. The conditions noted are these: human, HEK293 cells, read-out: HEK293 (CC50 code). Here is the method: as §1, §2, §3, §4
In general terms: Cellular ATP, detected with luciferase, serves as a proxy for viable cell number.

The subject of series [2] is caspase-3 and -7 activities in RS4-11 cells. As to the kind of experiment: Caspase-3/7 activation (Caspase-Glo 3/7) in RS4-11 cells. Type of series: cell-based. The conditions noted are these: Homo sapiens, 3.5 h incubation, read-out: Cas-3/7 (EC50 code). Here is the method:
The Caspase-Glo 3/7 Assay is homogeneous, luminescent assay that measures caspase-3 and -7 activities. The assay provides a luminogenic caspase-3/7 substrate, which contains the tetrapeptide sequence DEVD, in a reagent optimized for caspase activity.
Incubate RS4-11 cells with varying concentrations of test compounds for 3.5 h in a humidified incubator at 37° C. and 5% CO2 and 30 min at r.t. Add 15 μl Caspase-Glo reagent to each well and incubate the plate for 30 min at r.t. Read on ClarioStar Plus instrument.
Promega Caspase-Glo (Promega, #8212); Frozen RS4-11 cells; 384-well white plate (Corning, #3570).
ClarioStar Plus; Biomek FX for liquid handling (Beckman Coulter).

In the next series the target is BCL-2 (Homo sapiens (Human), UniProt P10415). As to the kind of experiment: BCL-2 TR-FRET Assay (primary PPI inhibition). The conditions noted are these: 60 min incubation; read-out: BCL2 (IC50 code, BCL-2 TR-FRET). The class given is binding. Here is the method:
BCL-2 TR-FRET Assay (BPS Bioscience, #50222)
The following assay concentrations and times were used: 3 ng BCL-2, 5 μl of 1:100 anti-His Tb-labeled donor, 5 μl of 1:100 Dye-labeled acceptor, 5 μl of 1:40 BCL-2 Peptide Ligand, and 2 ul of test compound, with 60 min incubation time. The results of the assay were read using a Clariostar (BMG Labtech) plate reader with the following parameters: TR FRET, 340ex/620 and 665em; 60 μsec Delay; and 500 μsec integration.

BCL-2, sequence (P10415 whole entry): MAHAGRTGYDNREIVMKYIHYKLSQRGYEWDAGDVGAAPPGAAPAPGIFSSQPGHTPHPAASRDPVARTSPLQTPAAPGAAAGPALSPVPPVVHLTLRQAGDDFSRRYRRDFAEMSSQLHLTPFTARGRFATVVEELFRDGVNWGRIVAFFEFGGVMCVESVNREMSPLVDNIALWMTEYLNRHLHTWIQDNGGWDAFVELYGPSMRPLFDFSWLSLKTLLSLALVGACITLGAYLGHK
BCL-XL, sequence (Q07817 whole entry): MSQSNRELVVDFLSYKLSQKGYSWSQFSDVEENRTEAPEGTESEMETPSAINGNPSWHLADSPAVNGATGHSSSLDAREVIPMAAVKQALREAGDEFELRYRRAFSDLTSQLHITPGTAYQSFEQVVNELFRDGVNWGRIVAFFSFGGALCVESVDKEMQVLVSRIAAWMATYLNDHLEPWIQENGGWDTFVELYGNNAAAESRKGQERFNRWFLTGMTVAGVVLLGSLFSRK

Consider `O=C(c1cc(-c2cc3c(cc2C(=O)N2Cc4ccccc4C[C@H]2CN2CCOCC2)OCO3)n2c1CCCC2)N(Cc1ccncc1)c1ccc(O)cc1` [Compound 9, N-(4-hydroxyphenyl)-3-(6-{[(3S)-3-(morpholin-4-ylmethyl)-3,4-dihydroisoquinolin-2(1H)-yl]carbonyl}-1,3-benzodioxol-5-yl)-N-(pyridin-4-ylmethyl)-5,6,7,8-tetrahydroindolizine-1-carboxamide], for which the results for the IC50 at BCL-XL and at BCL-2 were 2 to 4 µM and not above 0.005 µM, respectively. Also, the CC50 in the series with RS4-11 cells was 0.1 to 0.2 µM; in the series on MOLT-4 cells, 2 to 10 µM. In series [1], the CC50 at 3 days was 10 to 25 µM. In addition, the EC50 in series [2] fell in the range of 0.1 to 0.25 µM.

`Cc1cccc(CN(C(=O)c2cc(-c3cc4c(cc3C(=O)N3Cc5ccccc5C[C@H]3CN3CCOCC3)OCO4)n3c2CCCC3)c2ccc(O)cc2)c1` [Compound 14, N-(4-hydroxyphenyl)-N-(3-methylbenzyl)-3-(6-{[(3S)-3-(morpholin-4-ylmethyl)-3,4-dihydroisoquinolin-2(1H)-yl]carbonyl}-1,3-benzodioxol-5-yl)-5,6,7,8-tetrahydroindolizine-1-carboxamide]: the IC50 on BCL-XL is 2 to 4 µM; at BCL-2, 0.005 to 0.01 µM. In addition, the CC50 in the series with RS4-11 cells is not above 0.1 µM; with MOLT-4 cells, 2 to 10 µM. The CC50 at 3 days in series [1] is more than 25 µM. For the same compound, the EC50 in series [2] was more than 0.25 µM.

On to `O=C(c1cc(-c2cc3c(cc2C(=O)N2Cc4ccccc4C[C@H]2CN2CCOCC2)OCO3)n2c1CCCC2)N(Cc1ccccc1)c1ccc(O)cc1` [Compound 15, N-benzyl-N-(4-hydroxyphenyl)-3-(6-{[(3S)-3-(morpholin-4-ylmethyl)-3,4-dihydroisoquinolin-2(1H)-yl]carbonyl}-1,3-benzodioxol-5-yl)-5,6,7,8-tetrahydroindolizine-1-carboxamide], for which the IC50 on BCL-XL is not above 2 µM; at BCL-2 it was 0.005 to 0.01 µM. The CC50 is 0.1 to 0.2 µM in the series with RS4-11 cells and not above 2 µM with MOLT-4 cells. Also, in series [1], the CC50 at 3 days is more than 25 µM. Also, the EC50 in series [2] fell in the range of 0.1 to 0.25 µM.

On to `O=C(c1cc(-c2cc3c(cc2C(=O)N2Cc4ccccc4C[C@H]2CN2CCOCC2)OCO3)n2c1CCCC2)N(Cc1cccc(C(F)(F)F)c1)c1ccc(O)cc1` [Compound 16, N-(4-hydroxyphenyl)-3-(6-{[(3S)-3-(morpholin-4-ylmethyl)-3,4-dihydroisoquinolin-2(1H)-yl]carbonyl}-1,3-benzodioxol-5-yl)-N-[3-(trifluoromethyl)benzyl]-5,6,7,8-tetrahydroindolizine-1-carboxamide], for which the IC50 is more than 4 µM at BCL-XL and 0.01 to 0.05 µM on BCL-2. The CC50 was 0.1 to 0.2 µM in the series with RS4-11 cells and more than 10 µM in the series on MOLT-4 cells. For the same compound, the CC50 at 3 days in series [1] is more than 25 µM. Also, the EC50 in series [2] lay in the range of 0.1 to 0.25 µM.

For the compound `O=C(c1cc(-c2cc3c(cc2C(=O)N2Cc4ccccc4C[C@H]2CN2CCOCC2)OCO3)n2c1CCCC2)N(Cc1ccccc1-c1ccccc1)c1ccc(O)cc1` [Compound 18, N-(biphenyl-2-ylmethyl)-N-(4-hydroxyphenyl)-3-(6-{[(3S)-3-(morpholin-4-ylmethyl)-3,4-dihydroisoquinolin-2(1H)-yl]carbonyl}-1,3-benzodioxol-5-yl)-5,6,7,8-tetrahydroindolizine-1-carboxamide], the IC50 on BCL-XL is not above 2 µM; at BCL-2, 0.01 to 0.05 µM. Further, the results for the CC50 with RS4-11 cells and in the series with MOLT-4 cells were more than 0.2 µM and 2 to 10 µM, respectively. Further, in series [1], the CC50 at 3 days was more than 25 µM. Moreover, the EC50 in series [2] was more than 0.25 µM.

Regarding `O=C(c1cc(-c2cc3c(cc2C(=O)N2Cc4ccccc4C[C@H]2CN2CCOCC2)OCO3)n2c1CCCC2)N(Cc1c(F)cccc1F)c1ccc(O)cc1` [Compound 19, N-(2,6-difluorobenzyl)-N-(4-hydroxyphenyl)-3-(6-{[(3S)-3-(morpholin-4-ylmethyl)-3,4-dihydroisoquinolin-2(1H)-yl]carbonyl}-1,3-benzodioxol-5-yl)-5,6,7,8-tetrahydroindolizine-1-carboxamide], the IC50 at BCL-XL is more than 4 µM; on BCL-2 it was 0.005 to 0.01 µM. In addition, the CC50 in the series with RS4-11 cells was more than 0.2 µM; in the series with MOLT-4 cells, 2 to 10 µM. Moreover, the CC50 at 3 days in series [1] is more than 25 µM. Besides, in series [2], the EC50 was more than 0.25 µM.

Regarding `Cc1ccc(CN(C(=O)c2cc(-c3cc4c(cc3C(=O)N3Cc5ccccc5C[C@H]3CN3CCOCC3)OCO4)n3c2CCCC3)c2ccc(O)cc2)cc1` [Compound 20, N-(4-hydroxyphenyl)-N-(4-methylbenzyl)-3-(6-{[(3S)-3-(morpholin-4-ylmethyl)-3,4-dihydroisoquinolin-2(1H)-yl]carbonyl}-1,3-benzodioxol-5-yl)-5,6,7,8-tetrahydroindolizine-1-carboxamide], the IC50 on BCL-XL lay in the range of 2 to 4 µM; on BCL-2, 0.005 to 0.01 µM. Further, the CC50 in the series with RS4-11 cells was in the range of 0.1 to 0.2 µM; with MOLT-4 cells, 2 to 10 µM. In series [1], the CC50 at 3 days is not above 10 µM. Also, the EC50 in series [2] is more than 0.25 µM.

With `O=C(c1cc(-c2cc3c(cc2C(=O)N2Cc4ccccc4C[C@H]2CN2CCOCC2)OCO3)n2c1CCCC2)N(Cc1cccc(F)c1)c1ccc(O)cc1` [Compound 21, N-(3-fluorobenzyl)-N-(4-hydroxyphenyl)-3-(6-{[(3S)-3-(morpholin-4-ylmethyl)-3,4-dihydroisoquinolin-2(1H)-yl]carbonyl}-1,3-benzodioxol-5-yl)-5,6,7,8-tetrahydroindolizine-1-carboxamide], the results for the IC50 on BCL-XL and on BCL-2 were 2 to 4 µM and 0.01 to 0.05 µM, respectively. The CC50 was 0.1 to 0.2 µM in the series with RS4-11 cells and more than 10 µM in the series on MOLT-4 cells. Further, in series [1], the CC50 at 3 days was more than 25 µM. In addition, in series [2], the EC50 was more than 0.25 µM.

`COc1c(C)cnc(CN(C(=O)c2cc(-c3cc4c(cc3C(=O)N3Cc5ccccc5C[C@H]3CN3CCOCC3)OCO4)n3c2CCCC3)c2ccc(O)cc2)c1C` [Compound 23, N-(4-hydroxyphenyl)-N-[(4-methoxy-3,5-dimethylpyridin-2-yl)methyl]-3-(6-{[(3S)-3-(morpholin-4-ylmethyl)-3,4-dihydroisoquinolin-2(1H)-yl]carbonyl}-1,3-benzodioxol-5-yl)-5,6,7,8-tetrahydroindolizine-1-carboxamide]: the results for the IC50 at BCL-XL and on BCL-2 were more than 4 µM and 0.01 to 0.05 µM, respectively. In addition, the CC50 in the series with RS4-11 cells is more than 0.2 µM; in the series with MOLT-4 cells, more than 10 µM. Besides, the CC50 at 3 days in series [1] is 10 to 25 µM. In series [2], the EC50 was more than 0.25 µM.

Regarding `O=C(c1cc(-c2cc3c(cc2C(=O)N2Cc4ccccc4C[C@H]2CN2CCOCC2)OCO3)n2c1CCCC2)N(Cc1ccc(C(F)(F)F)cc1)c1ccc(O)cc1` [Compound 24, N-(4-hydroxyphenyl)-3-(6-{[(3S)-3-(morpholin-4-ylmethyl)-3,4-dihydroisoquinolin-2(1H)-yl]carbonyl}-1,3-benzodioxol-5-yl)-N-[4-(trifluoromethyl)benzyl]-5,6,7,8-tetrahydroindolizine-1-carboxamide], the IC50 is more than 4 µM on BCL-XL and 0.01 to 0.05 µM at BCL-2. Also, the CC50 was more than 0.2 µM in the series on RS4-11 cells and 2 to 10 µM in the series on MOLT-4 cells. The CC50 at 3 days in series [1] was not above 10 µM. Moreover, the EC50 in series [2] is more than 0.25 µM.
